Experimental data: ChEMBL document CHEMBL1152560, “Substituted 2-arylbenzothiazoles as kinase inhibitors: hit-to-lead optimization” (Bioorg Med Chem, 2009)

Legend:
[1] = target: T1, Beta-adrenergic receptor kinase 1 (Homo sapiens) (UniProt P25098); assay: Residual activity of GRK2 at 1 uM by microplate scintillation counting
T1 sequence (whole entry): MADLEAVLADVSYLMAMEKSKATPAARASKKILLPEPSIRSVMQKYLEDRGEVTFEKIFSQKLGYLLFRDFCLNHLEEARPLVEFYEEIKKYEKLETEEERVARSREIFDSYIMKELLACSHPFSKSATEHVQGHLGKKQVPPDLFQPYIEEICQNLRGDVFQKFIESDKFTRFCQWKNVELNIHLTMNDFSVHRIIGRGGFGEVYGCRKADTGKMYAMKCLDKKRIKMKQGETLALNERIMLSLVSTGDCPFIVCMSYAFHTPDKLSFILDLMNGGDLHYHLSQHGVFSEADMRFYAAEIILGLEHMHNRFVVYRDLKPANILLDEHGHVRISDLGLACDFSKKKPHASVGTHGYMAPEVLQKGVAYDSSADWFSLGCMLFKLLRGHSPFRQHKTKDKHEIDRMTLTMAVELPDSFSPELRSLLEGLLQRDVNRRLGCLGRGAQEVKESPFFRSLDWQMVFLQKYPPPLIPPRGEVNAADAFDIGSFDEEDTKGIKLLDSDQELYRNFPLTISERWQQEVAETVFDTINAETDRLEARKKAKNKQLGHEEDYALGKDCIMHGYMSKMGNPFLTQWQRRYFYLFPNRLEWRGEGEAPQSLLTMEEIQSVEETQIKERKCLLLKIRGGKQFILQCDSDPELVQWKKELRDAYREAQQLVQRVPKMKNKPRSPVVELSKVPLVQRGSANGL

[2] = target: T2, Serine/threonine-protein kinase D1 (Homo sapiens) (UniProt Q15139); assay: Residual activity of PKCmu at 1 uM by microplate scintillation counting
T2 sequence (whole entry): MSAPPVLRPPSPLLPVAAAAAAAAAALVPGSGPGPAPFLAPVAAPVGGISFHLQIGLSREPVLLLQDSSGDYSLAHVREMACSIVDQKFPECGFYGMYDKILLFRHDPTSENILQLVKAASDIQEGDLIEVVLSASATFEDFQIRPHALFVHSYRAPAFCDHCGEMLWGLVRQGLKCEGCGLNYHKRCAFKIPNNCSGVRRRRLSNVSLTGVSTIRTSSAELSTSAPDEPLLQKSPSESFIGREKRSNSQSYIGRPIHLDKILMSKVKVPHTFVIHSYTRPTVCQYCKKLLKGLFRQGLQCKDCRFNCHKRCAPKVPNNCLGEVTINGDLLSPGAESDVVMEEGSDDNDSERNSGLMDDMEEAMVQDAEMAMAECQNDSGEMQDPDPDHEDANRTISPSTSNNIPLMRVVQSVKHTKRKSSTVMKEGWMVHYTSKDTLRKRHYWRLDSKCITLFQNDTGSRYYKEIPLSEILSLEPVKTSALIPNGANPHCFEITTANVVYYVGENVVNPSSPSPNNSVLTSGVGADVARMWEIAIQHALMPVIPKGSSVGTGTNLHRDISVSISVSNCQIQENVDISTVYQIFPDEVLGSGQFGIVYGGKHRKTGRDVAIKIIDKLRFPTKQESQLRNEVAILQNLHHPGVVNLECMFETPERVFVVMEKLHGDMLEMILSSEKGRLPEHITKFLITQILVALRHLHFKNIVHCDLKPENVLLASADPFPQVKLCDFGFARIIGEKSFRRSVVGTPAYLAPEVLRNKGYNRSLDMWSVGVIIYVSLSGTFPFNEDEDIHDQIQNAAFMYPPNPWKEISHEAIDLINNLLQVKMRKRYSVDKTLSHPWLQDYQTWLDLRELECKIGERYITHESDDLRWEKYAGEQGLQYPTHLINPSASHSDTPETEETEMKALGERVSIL

[3] = target: Ribosomal protein S6 kinase alpha-2 (Homo sapiens) (UniProt Q15349); assay: Residual activity of RPS6KA2 at 10 uM by microplate scintillation counting
Sequence of Ribosomal protein S6 kinase alpha-2 (Homo sapiens) (Q15349 whole entry): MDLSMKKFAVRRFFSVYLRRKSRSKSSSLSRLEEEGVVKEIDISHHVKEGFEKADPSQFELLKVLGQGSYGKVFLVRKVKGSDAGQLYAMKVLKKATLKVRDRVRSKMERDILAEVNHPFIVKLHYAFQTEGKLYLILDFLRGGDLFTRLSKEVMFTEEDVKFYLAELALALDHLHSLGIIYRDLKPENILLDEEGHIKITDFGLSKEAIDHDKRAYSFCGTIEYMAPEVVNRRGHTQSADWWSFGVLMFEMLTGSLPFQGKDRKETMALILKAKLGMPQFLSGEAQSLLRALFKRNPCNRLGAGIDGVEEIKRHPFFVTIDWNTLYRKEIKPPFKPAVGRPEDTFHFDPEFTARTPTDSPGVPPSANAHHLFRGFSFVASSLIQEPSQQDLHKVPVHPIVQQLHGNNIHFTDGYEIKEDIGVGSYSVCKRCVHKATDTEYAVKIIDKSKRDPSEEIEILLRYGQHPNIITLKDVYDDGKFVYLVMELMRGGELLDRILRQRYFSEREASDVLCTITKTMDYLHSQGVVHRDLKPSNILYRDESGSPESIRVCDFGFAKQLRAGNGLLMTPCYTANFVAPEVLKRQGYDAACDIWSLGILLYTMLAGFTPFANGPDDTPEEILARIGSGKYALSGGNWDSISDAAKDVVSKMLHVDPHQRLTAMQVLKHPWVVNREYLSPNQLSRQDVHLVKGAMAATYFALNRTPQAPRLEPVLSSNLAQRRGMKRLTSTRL

[4] = target: T3, Serine/threonine-protein kinase D2 (Homo sapiens) (UniProt Q9BZL6); assay: Residual activity of PRKD2 at 0.1 uM by microplate scintillation counting
T3 sequence (whole entry): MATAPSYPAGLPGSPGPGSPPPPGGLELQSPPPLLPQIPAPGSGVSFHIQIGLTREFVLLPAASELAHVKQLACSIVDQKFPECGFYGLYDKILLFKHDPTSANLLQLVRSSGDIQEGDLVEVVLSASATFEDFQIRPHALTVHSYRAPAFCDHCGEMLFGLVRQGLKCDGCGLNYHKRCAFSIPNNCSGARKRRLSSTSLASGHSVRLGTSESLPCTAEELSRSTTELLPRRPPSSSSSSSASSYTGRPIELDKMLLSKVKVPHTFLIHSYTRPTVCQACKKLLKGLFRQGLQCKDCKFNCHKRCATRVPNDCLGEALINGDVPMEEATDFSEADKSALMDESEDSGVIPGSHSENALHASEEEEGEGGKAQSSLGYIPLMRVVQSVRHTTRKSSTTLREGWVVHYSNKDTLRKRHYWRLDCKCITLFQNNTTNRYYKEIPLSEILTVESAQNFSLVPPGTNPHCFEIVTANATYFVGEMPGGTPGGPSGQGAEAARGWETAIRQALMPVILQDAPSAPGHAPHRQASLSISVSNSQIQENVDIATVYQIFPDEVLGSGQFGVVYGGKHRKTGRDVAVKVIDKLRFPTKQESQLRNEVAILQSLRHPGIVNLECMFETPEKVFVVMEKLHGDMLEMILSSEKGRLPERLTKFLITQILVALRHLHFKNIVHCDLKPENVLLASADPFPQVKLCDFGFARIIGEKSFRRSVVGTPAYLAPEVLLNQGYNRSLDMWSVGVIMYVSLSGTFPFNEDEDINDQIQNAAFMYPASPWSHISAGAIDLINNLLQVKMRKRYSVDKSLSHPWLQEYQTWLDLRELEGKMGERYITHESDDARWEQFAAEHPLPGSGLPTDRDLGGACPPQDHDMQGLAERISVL

SMILES | residual activity [1] | residual activity [2] | residual activity [3] | residual activity [4]
COc1cc2c(Oc3ccc(-c4nc5ccccc5s4)cc3)ncnc2cc1OCCCN1CCN(C)CC1 | 105% | 89% | 44% | 82%
COc1cc2c(Oc3ccc(-c4nc5ccccc5s4)cc3F)ncnc2cc1OCCCN1CCN(C)CC1 | 85% | 89% | 39% | 95%
COc1cc2c(Oc3ccc(-c4nc5ccccc5s4)cc3)ncnc2cc1OCCCN1CCCC1 | 97% | 100% | 81% | 89%
